Experimental data: US7432276B2, “ABCA1 elevating compounds” (CV Therapeutics, Inc., priority 2005, dated 2008)

The compounds below were run on ABCA1 mRNA (assay: ABCA1 mRNA induction in THP-1 cells, QuantiGene branched DNA assay). Settings: 10 μM test compound, 18-20 hours.
Type: cell-based
Outline: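 THP-1 cells, grown to subconfluence, treated with compounds at 10 and 3 μM in DMEM/BSA for 18–20 h. Lysates hybridized with ABCA1-specific probe 16–18 h at 53 °C; QuantiGene branched DNA luminescence gives fold increase over DMSO.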

SMILES	ABCA1 Induction Fold Increase over DMSO Vehicle [FOLD INCREASE]
COc1cccc2c1[C@H]1Nc3ccc(-c4ccc(S(N)(=O)=O)cc4)cc3C(C)(C)[C@@H]1CO2 [Number 97, 4-((12aS,6aS)-1-methoxy-7,7-dimethyl-7,12,12a,6a-tetrahydrochromano[4,3-b]quinolin-9-yl)benzenesulfonamide]	5.7
COc1cccc2c1[C@H]1Nc3ccc(-n4ncc(C(=O)N5CCS(=O)(=O)CC5)c4C)cc3C(C)(C)[C@H]1CO2 [Number 141, 1-((6aR,12aS)-6a,7,12,12a-tetrahydro-1-methoxy-7,7-dimethyl-6H-chromeno[4,3-b]quinolin-9-yl)1-5-methyl-1H-pyrazole-4-((1,1-dione-1,4-thiazaperhydroin-yl)methanone)]	7.1
COc1cccc2c1[C@H]1Nc3ccc(-c4ccc(CCC(=O)O)cc4)cc3C(C)(C)[C@H]1CO2 [Number 114, 3-[4-((12aS,6aR)-1-methoxy-7,7-dimethyl-7,12,12a,6a-tetrahydrochromano[4,3-b]quinolin-9-yl)phenyl]propanoic acid]	2.7
COc1cccc2c1OC[C@@H]1[C@@H]2Nc2ccc(C(=O)O)cc2C1(C)C [Number 49, (12aS,6aS)-4-methoxy-7,7-dimethyl-7,12,12a,6a-tetrahydrochromano[4,3-b]quinoline-9-carboxylic acid]	1.7
COc1cccc2c1OCC1C2Nc2ccc(C(O)(C(F)(F)F)C(F)(F)F)cc2C1(C)C (centres unmarked) [Number 33, 1,1,1,3,3,3-hexafluoro-2-(4-methoxy-7,7-dimethyl(7,12,12a,6a-tetrahydrochromano[4,3-b]quinolin-9-yl))propan-2-ol]	6.4
COc1cccc2c1OC[C@@H]1[C@H]2Nc2ccccc2C1(C)C [Number 37, (6aS,12aR)-4-methoxy-7,7-dimethyl-7,12,12a,6a-tetrahydrochromano[4,3-b]quinoline]	8.3
Cc1c(C(=O)N2CCS(=O)(=O)CC2)cnn1-c1ccc2c(c1)C(C)(C)[C@H]1COc3cccc(F)c3[C@H]1N2 [Number 145, 1-((6aR,12aS)-6a,7,12,12a-tetrahydro-1-fluoro-7,7-dimethyl-6H-chromeno[4,3-b]quinolin-9-yl)1-5-methyl-1H-pyrazole-4-((1,1-dione-1,4-thiazaperhydroin-yl)methanone)]	4.5
COc1ccc(Br)c2c1OCC1C2Nc2ccc(OC(C)C)cc2C1(C)C (centres unmarked) [Number 83, 1-bromo-4-methoxy-7,7-dimethyl-9-(methylethoxy)-7,12,12a,6a-tetrahydrochromano[4,3-b]quinoline]	2.7
COc1ccccc1-c1ccc2c(c1)C(C)(C)C1COc3c(OC)cc(Cl)cc3C1N2 (centres unmarked) [Number 100, 1-(2-chloro-4-methoxy-7,7-dimethyl(7,12,12a,6a-tetrahydrochromano[4,3-b]quinolin-9-yl))-2-methoxybenzene]	3.0
COc1cccc2c1OC[C@@H]1[C@H]2Nc2ccc(OC(F)(F)F)cc2C1(C)C [Number 52, ((6aS,12aR)-4-methoxy-7,7-dimethyl(7,12,12a,6a-tetrahydrochromano[4,3-b]quinolin-9-yloxy))trifluoromethane]	9.5
CC1(C)c2cc(C(O)(C(F)(F)F)C(F)(F)F)ccc2NC2c3cc(Cl)cc(Cl)c3OCC21 (centres unmarked) [Number 68, 2-(2,4-dichloro-7,7-dimethyl(7,12,12a,6a-tetrahydrochromano[4,3-b]quinolin-9-yl))-1,1,1,3,3,3-hexafluoropropan-2-ol]	2.7
CC1(C)c2cc(C(O)(C(F)(F)F)C(F)(F)F)ccc2N[C@@H]2c3cc(OC(F)(F)F)ccc3OC[C@H]21 [Number 9, 2-[(12aS,6aS)-7,7-dimethyl-2-(trifluoromethoxy)(7,12,12a,6a-tetrahydrochromano[4,3-b]quinolin-9-yl)]-1,1,1,3,3,3-hexafluoropropan-2-ol]	2.4
CC1(C)c2cc(C(O)(C(F)(F)F)C(F)(F)F)ccc2NC2c3cc(Br)ccc3OCC21 (centres unmarked) [Number 1, 2-(2-bromo-7,7-dimethyl(7,12,12a,6a-tetrahydrochromano[4,3-b]quinolin-9-yl))-1,1,1,3,3,3-hexafluoropropan-2-ol]	4.4
Cc1cc(Cl)cc2c1OCC1C2Nc2ccc(C(O)(C(F)(F)F)C(F)(F)F)cc2C1(C)C (centres unmarked) [Number 69, 2-(2-chloro-4,7,7-trimethyl(7,12,12a,6a-tetrahydrochromano[4,3-b]quinolin-9-yl))-1,1,1,3,3,3-hexafluoropropan-2-ol]	2.6
CC(C)=CCOC(=O)c1ccc2c(c1)C1Nc3ccc(B(O)O)cc3C(C)(C)C1CO2 (centres unmarked) [Number 15, 3-methylbut-2-enyl 9-(dihydroxyboramethyl)-7,7-dimethyl-7,12,12a,6a-tetrahydrochromano[4,3-b]quinoline-2-carboxylate]	1.8
CCS(=O)(=O)N1CCN(C(=O)c2coc(-c3ccc4c(c3)C(C)(C)[C@H]3COc5cccc(F)c5[C@H]3N4)n2)CC1 [Number 142, 2-((6aR,12aS)-1-fluoro-6a,7,12,12a-tetrahydro-7,7-dimethyl-6H-chromeno[4,3-b]quinolin-9-yl)oxazole-(4-(4-ethanesulfonylpiperazin-1-yl)methanone)]	5
COc1cccc2c1[C@H]1Nc3ccc(-c4cc[nH]n4)cc3C(C)(C)[C@H]1CO2 [Number 111, (12aS,6aR)-1-methoxy-7,7-dimethyl-9-pyrazol-3-yl-7,12,12a,6a-tetrahydrochromano[4,3-b]quinoline]	4.7
COC(=O)c1cc2c(cc1OC)NC1c3cc(Br)ccc3OCC1C2(C)C (centres unmarked) [Number 6, methyl 2-bromo-10-methoxy-7,7-dimethyl-7,12,12a,6a-tetrahydrochromano[4,3-b]quinoline-9-carboxylate]	1.6

Same assay, conditions: Homo sapiens, 10 μM test compound, 18-20 hours, read-out: ABCA1 Induction Fold Increase over DMSO Vehicle

SMILES	fold induction at 10 µM
CCS(=O)(=O)N1CCN(C(=O)c2ccc3c(c2)C(C)(C)[C@H]2COc4c(OC)cccc4[C@H]2N3)CC1 [Number 134, ((6aR,12aS)-4-methoxy-6a,7,12,12a-tetrahydro-7,7-dimethyl-6H-chromeno[4,3-b]quinolin-9-yl)(4-ethanesulfonylpiperazin-1-yl)methanone]	5.8
CCS(=O)(=O)N1CCN(C(=O)c2ccc3c(c2)C(C)(C)[C@H]2COc4cccc(OC)c4[C@H]2N3)CC1 [Number 132, ((6aR,12aS)-1-methoxy-6a,7,12,12a-tetrahydro-7,7-dimethyl-6H-chromeno[4,3-b]quinolin-9-yl)(4-ethanesulfonylpiperazin-1-yl)methanone]	4.3
COC(=O)c1ccc2c(c1)C(C)(C)[C@H]1COc3cccc(OC)c3[C@H]1N2C [Number 153, (6aR,12aS)-methyl 6a,7,12,12a-tetrahydro-1-methoxy-7,7,12-trimethyl-6H-chromeno[4,3-b]quinoline-9-carboxylate]	7.4
CC1(C)c2cc(-c3nc(C(=O)O)co3)ccc2N[C@@H]2c3c(F)cccc3OC[C@@H]21 [Number 131, 2-((6aR,12aS)-1-fluoro-6a,7,12,12a-tetrahydro-7,7-dimethyl-6H-chromeno[4,3-b]quinolin-9-yl)oxazole-4-carboxylic acid]	2
CCCN1c2ccccc2C(C)(C)[C@@H]2COc3cccc(OC)c3[C@H]21 [Number 173, (6aS,12aS)-12-propyl-6a,7,12,12a-tetrahydro-1-methoxy-7,7-dimethyl-6H-chromeno[4,3-b]quinoline]	1.8
COc1cc(Br)cc2c1OC[C@@H]1[C@@H]2Nc2ccc(-c3nnn[nH]3)cc2C1(C)C [Number 169, (6aS,12aS)-2-bromo-6a,7,12,12a-tetrahydro-4-methoxy-7,7-dimethyl-9-(1H-tetrazol-5-yl)-6H-chromeno[4,3-b]quinoline]	9.7
COc1cc(I)cc2c1OC[C@H]1[C@@H]2Nc2ccc(-n3ncc(C(=O)O)c3C)cc2C1(C)C [Number 178, 1-((6aR,12aS)-6a,7,12,12a-tetrahydro-2-iodo-4-methoxy-7,7-dimethyl-6H-chromeno[4,3-b]quinolin-9-yl)-5-methyl-1H-pyrazole-4-carboxylic acid]	5.1
COc1cc(Br)cc2c1OC[C@@H]1[C@@H]2Nc2ccc(-c3cnco3)cc2C1(C)C [Number 150, (6aS,12aS)-2-bromo-6a,7,12,12a-tetrahydro-4-methoxy-7,7-dimethyl-9-(oxazol-5-yl)-6H-chromeno[4,3-b]quinoline]	12.5
CCOP(=O)(Cc1ccc2c(c1)C(C)(C)[C@@H]1COc3c(OC)cc(Br)cc3[C@H]1N2)OCC [Number 179, diethyl((6aS,12aS)-2-bromo-6a,7,12,12a-tetrahydro-4-methoxy-7,7-dimethyl-6H-chromeno[4,3-b]quinolin-9-yl)methylphosphonate]	5.2
CCOC(=O)c1cnn(-c2ccc3c(c2)C(C)(C)[C@H]2COc4cccc(OC)c4[C@H]2N3)c1 [Number 135, ethyl 1-((6aR,12aS)-6a,7,12,12a-tetrahydro-1-methoxy-7,7-dimethyl-6H-chromeno[4,3-b]quinolin-9-yl)-1H-pyrazole-4-carboxylate]	6.4
COc1cccc2c1OC[C@@H]1[C@@H]2Nc2ccc(C(=O)N3CCOCC3)cc2C1(C)C [Number 120, ((6aS,12aS)-6a,7,12,12a-tetrahydro-4-methoxy-7,7-dimethyl-6H-chromeno[4,3-b]quinolin-9-yl)(morpholino)methanone]	4.2
